Assay results published in patent US5514662A, “Use of amphotericin B derivatives as protease inhibitors” (priority 1991, dated 1996).

What was measured:
HIV = assay: Viral expression in reactivated infected CD4 cells from patients (p24 ELISA); type: cell-based; settings: Human immunodeficiency virus 1, 240 h, 7 patients tested
Text: The activation of infected CD4+cells is known to stimulate the production of the virus. The effect of DABF-AmB was therefore tested on the vital expression in cells from AIDS patients reactivated in vitro by anti-CD3, by anti-CD28, by PMA (phorbol myristate acetate) or by soluble anti-CD3.
PBMCs from patients (<300 CD4) were isolated on a Ficoll gradient using blood. The CD4 cells were isolated by cell sorting using a flow cytometer (FACS-Star, Becton-Dickinson, Mountain View, Calif.) after OKT4-FITC labelling. The CD4 cells were washed again and then re-inoculated as indicated in 5 and activated either with anti-CD3 or anti-CD28 antibodies or with PMA. Viral expression was evaluated after 10 days by ELISA assay of p24 in the supernatants.

HIV-1 = assay: Reverse transcriptase activity in HIV-1 infected PBMCs; type: cell-based
Protocol: (§1) The T cells (Jurkat and CEM) used are very permissive to HIV infection. They are cultured in RPMI 1640 medium supplemented with 10% foetal calf serum, 2 mM of glutamine and a mixture of penicillin and streptomycin. The peripheral blood mononuclear cells are obtained from blood from healthy donors, isolated on a Ficoll Hypaque gradient and stimulated with 10 μg/ml of phytohaemagglutinin A (PHA), for two days, in RPMI 1640 medium supplemented, prior to the infection by HIV, with amikacin and vancomycin (10 mg/ml), polybrene (1 mg/ml) and anti-interferon gamma serum (5 U/ml). After infection, the PBMCs are cultured (10^5 per well) in flat-bottomed 96-well plates in the same RPMI 1640 medium (200 μl per well).
The PBMCs cells (2×10^6 /ml) are infected with the same viruses and under the same conditions as the Jurkat or CEM cells. They are then washed and resuspended in fresh culture medium in flat-bottomed 96-well plates (10^5 cells per well in […]).
The reverse transcriptase activity is determined at the indicated times using the culture supernatant, according to the procedure described by REY et al., Biochem. Res. Comm. 121, 126-133 (1984).
PBMCs isolated from healthy individuals are infected with HIV-1. The production of antigen p24 as well as the reverse transcriptase activity can be detected in the supernatants of cultures infected 3 days after the infection. The maximum reverse transcriptase activity and p24 synthesis are observed between the 6th and 7th day, and the 5th and 6th day respectively. No cell death is observed at this time.
The infected PBMCs are treated continuously as described above for the Jurkat and CEM cells, using increasing concentrations of DABF-AmB.
(§2) The effect of DABF-AmB on the reverse transcriptase activity and on the secretion of p24 is evaluated on the 6th day.

CD3 = assay: Membrane antigen CD3 in HIV-1 infected cells; type: cell-based, human; settings: treated or untreated infected cells
Protocol: (§3) Immunofluorescence analyses are carried out on the 8th day of the infection in order to verify whether the inhibition of HIV replication by DABF-AmB results in 10 a reduced membrane expression of viral antigens.

CEM cells = assay: Cell viability of CEM cells; type: cell-based, human; settings: concentrations above 100 μM
Text: (§4) Cell viability was estimated at the same time. […] It therefore appears that DABF-AmB inhibits the replication of HIV at doses which are not cytotoxic.

HUT78 cells = assay: Cytotoxicity in HUT78 cells; type: cell-based
reverse transcriptase = target: T1, reverse transcriptase (Human immunodeficiency virus type 1 (BRU ISOLATE), UniProt P03367); assay: Direct action on reverse transcriptase in vitro; type: biochemical
T1 construct: probably viral enzyme of LAV/BRU (LAI) culture supernatant

Jurkat cells = assay: Cell viability of Jurkat cells; type: cell-based, human; settings: concentrations above 100 μM
Text: as §4

CD4 = assay: Membrane expression of CD4 in HIV-1 infected Jurkat and CEM cells; type: cell-based, human; settings: 10 μM continuous, 8th day
Protocol: Membrane expression of CD4 and gp120 is measured by means of the monoclonal antibodies OKT4 (0,5 μg/ml), 110-4 (2 μg/ml) respectively, which are stained using a […].
The fluorescence is measured by means of a FACSTAR cell counter (BECTON DICKINSON, MOUNTAIN VIEW, Calif.). The results are expressed as mean fluorescence intensity.
The CD4-specific monoclonal antibody (OKT4 was bought from ORTHO PHARMACEUTICAL CORPORATION (Raritan, N.J.).
as §3

human thymocytes = assay: Distribution of CD4 and CD8 cells in uninfected activated thymocytes; type: cell-based
Protocol: Human thymuses were obtained during corrective heart surgery operations on 3 to 7 year old children. The tissues were cut into fragments and the red blood cells were removed by treating with […] buffer. After washing in PBS buffer, cellular suspensions were prepared in an RPMI 1640 medium containing 10% of human serum type […]. Dead cells were removed by passing over a sterile nylon wool column.
The cells were infected with HIV LAV/BRU as indicated above in the general procedures, and then re-inoculated in the presence of PHA, of anti-CD2 or anti-CD3 antibodies and of IL2 and cultured for 10 days at a rate of 1×10^7 cells/ml. After 10 days, viral production was evaluated by measuring the RT activity in the supernatants and the distribution of CD4/CD8 was evaluated by double fluorescence flow cytometry by means of FITC-labelled anti-CD4 antibodies (OKT4) and phycoerythrin-labelled anti-CD8 antibodies (OKT8). DABF-AmB was added to the cultures immediately after infection and maintained during the entire duration of the culture.

viral antigen p24 = assay: Secretion of p24 in HIV-1 infected PBMCs; type: cell-based; settings: Human immunodeficiency virus 1, PBMC, read-out: inhibition of synthesis of p24
Protocol: as §1
The PBMCs cells (2×10^6 /ml) are infected with the same viruses and under the same conditions as the Jurkat or CEM cells. […]
The viral antigen p24 was quantified in the infected-cell supernatant by radioimmunological assay using the procedure recommended by the manufacturer (ABBOTT, Diagnostics Division).
PBMCs isolated from healthy individuals are infected with HIV-1. The production of antigen p24 as well as the reverse transcriptase activity can be detected in the supernatants of cultures infected 3 days after the infection. […]
as §2

leucocyte elastase = assay: Activity of DABF-AmB on various proteases: leucocyte elastase; type: biochemical; settings: 1 μM
Protocol: DABF-AmB was tested, at a concentration of 1 μM, on various proteases (papain, chymotrypsin, kallicrein, leucocyte elastase, cathopsin D and recombinant protease p10) under conditions and in the presence of substrates appropriate for each of the proteases tested.

Q: With `C[C@@H]1[C@H](O)[C@@H](C)/C=C/C=C/C=C/C=C/C=C/C=C/C=C/[C@H](O[C@@H]2O[C@H](C)[C@@H](O)[C@H](NCC(=O)[C@@H](O)[C@@H]3OC(c4ccccc4)OC[C@H]3O)[C@@H]2O)C[C@@H]2O[C@](O)(C[C@@H](O)C[C@@H](O)[C@H](O)CC[C@@H](O)C[C@@H](O)CC(=O)O[C@H]1C)C[C@H](O)[C@H]2C(=O)O` (stereo partly drawn) [DABF-AmB, 1-deoxy-1-amino-4,6-O-benzylidene-D-fructosyl-AmB] as the molecule, how does the inhibition at 10 µM (HIV) read?
A: > 90%

Q: And the inhibition at 10 µM (HIV-1; Human immunodeficiency virus 1, PBMC, 144 h, PBMCs, 10 μM, 6th day, N=3)?
A: 92 ± 4%

Q: And the “increase in the anti-HIV action in PBMCs” value (HIV-1; concentrations above 20 μM)?
A: do not bring about a significant increase

Q: What about the “anti-HIV inhibition in PBMCs (in words)” value (HIV-1; concentrations below 1 μM) of the same molecule?
A: only a low inhibition

Q: What about the “level of the membrane antigen CD3” value (CD3) of the same molecule?
A: unchanged

Q: What about the cytotoxic effect (CEM cells) of the same molecule?
A: no cytotoxic effect

Q: And the cytotoxicity (HUT78 cells; 50 μM, HIV2 table, 3 days)?
A: low cytotoxicity

Q: What about the cytotoxicity (HUT78 cells; 50 μM, SIV table, 3 days) of the same molecule?
A: low cytotoxicity

Q: And the cytotoxicity (HUT78 cells; 100 μM, HIV2 table, 3 days)?
A: high cytotoxicity

Q: And the cytotoxicity (HUT78 cells; 100 μM, HIV2 table, 5 days)?
A: cytotoxicity

Q: And the cytotoxicity (HUT78 cells; 100 μM, SIV table, 3 days)?
A: high cytotoxicity

Q: What about the cytotoxicity (HUT78 cells; 100 μM, SIV table, 5 days) of the same molecule?
A: cytotoxicity

Q: What about the “direct action on reverse transcriptase activity” value (reverse transcriptase) of the same molecule?
A: no direct action

Q: And the cytotoxic effect (Jurkat cells)?
A: no cytotoxic effect

Q: And the “level of the membrane antigen CD4” value (CD4)?
A: increases until it reaches that for the uninfected cells

Q: And the “distribution of the CD4 and CD8 cells in uninfected thymocytes” value (human thymocytes; even at 10 μM, PHA, anti-CD2 or anti-CD3 activated)?
A: does not significantly modify

Q: And the “CD4+ CD8+ population in uninfected thymocytes” value (human thymocytes; up to 10 μM)?
A: slight increase

Q: What about the inhibition at 10 µM (viral antigen p24) of the same molecule?
A: 88 ± 6%

Q: What about the “inhibition of leucocyte elastase” value (leucocyte elastase) of the same molecule?
A: inhibits
